Test results reported in ChEMBL document CHEMBL3046329, “Sensitivity to silthiofam, tebuconazole and difenoconazole of Gaeumannomyces graminis var. tritici isolates from China” (Pest Manag Sci, 2012).
Values after ≈ are worked out from the molar mass of the structure shown.

Legend:
Gaeumannomyces tritici [1] = assay: Antifungal activity against sithiofam-sensitive Gaeumannomyces graminis var. tritici isolate JS08 expressing C2 genetic cluster assessed as reduction in fungal colony diameter after 4 days; type: functional, organism-based; settings: isolate JS08, 96 h
Gaeumannomyces tritici [2] = assay: Antifungal activity against sithiofam-resistant Gaeumannomyces graminis var. tritici isolate JS07 expressing C1 genetic cluster assessed as reduction in fungal colony diameter after 4 days; type: functional, organism-based; settings: isolate JS07, 96 h
Gaeumannomyces tritici [3] = assay: Antifungal activity against sithiofam-resistant Gaeumannomyces graminis var. tritici isolate JS04 expressing C1 genetic cluster assessed as reduction in fungal colony diameter after 4 days; type: functional, organism-based; settings: isolate JS04, 96 h
Gaeumannomyces tritici [4] = assay: Antifungal activity against sithiofam-sensitive Gaeumannomyces graminis var. tritici isolate JS03 expressing C1 genetic cluster assessed as reduction in fungal colony diameter after 4 days; type: functional, organism-based; settings: isolate JS03, 96 h
Gaeumannomyces tritici [5] = assay: Antifungal activity against sithiofam-sensitive Gaeumannomyces graminis var. tritici isolate JS02 expressing C1 genetic cluster assessed as reduction in fungal colony diameter after 4 days; type: functional, organism-based; settings: isolate JS02, 96 h
Gaeumannomyces tritici [6] = assay: Antifungal activity against sithiofam-resistant Gaeumannomyces graminis var. tritici isolate JS12 expressing C1 genetic cluster assessed as reduction in fungal colony diameter after 4 days; type: functional, organism-based; settings: isolate JS12, 96 h
Gaeumannomyces tritici [7] = assay: Antifungal activity against sithiofam-resistant Gaeumannomyces graminis var. tritici isolate JS11 expressing C1 genetic cluster assessed as reduction in fungal colony diameter after 4 days; type: functional, organism-based; settings: isolate JS11, 96 h
Gaeumannomyces tritici [8] = assay: Antifungal activity against sithiofam-sensitive Gaeumannomyces graminis var. tritici isolate JS10 expressing C2 genetic cluster assessed as reduction in fungal colony diameter after 4 days; type: functional, organism-based; settings: isolate JS10, 96 h
Gaeumannomyces tritici [9] = assay: Antifungal activity against sithiofam-sensitive Gaeumannomyces graminis var. tritici isolate HN19 expressing C2 genetic cluster assessed as reduction in fungal colony diameter after 4 days; type: functional, organism-based; settings: isolate HN19, 96 h
Gaeumannomyces tritici [10] = assay: Antifungal activity against sithiofam-sensitive Gaeumannomyces graminis var. tritici isolate HN29 expressing C2 genetic cluster assessed as reduction in fungal colony diameter after 4 days; type: functional, organism-based; settings: isolate HN29, 96 h
Gaeumannomyces tritici [11] = assay: Antifungal activity against sithiofam-resistant Gaeumannomyces graminis var. tritici isolate HN27 expressing […] genetic cluster assessed as reduction in fungal colony diameter after 4 days; type: functional, organism-based; settings: isolate HN27, 96 h
Gaeumannomyces tritici [12] = assay: Antifungal activity against sithiofam-sensitive Gaeumannomyces graminis var. tritici isolate HN25 expressing C2 genetic cluster assessed as reduction in fungal colony diameter after 4 days; type: functional, organism-based; settings: isolate HN25, 96 h
Gaeumannomyces tritici [13] = assay: Antifungal activity against sithiofam-sensitive Gaeumannomyces graminis var. tritici isolate HN24 expressing C2 genetic cluster assessed as reduction in fungal colony diameter after 4 days; type: functional, organism-based; settings: isolate HN24, 96 h
Gaeumannomyces tritici [14] = assay: Antifungal activity against sithiofam-resistant Gaeumannomyces graminis var. tritici isolate HN12 expressing C1 genetic cluster assessed as reduction in fungal colony diameter after 4 days; type: functional, organism-based; settings: isolate HN12, HN12, 96 h
Gaeumannomyces tritici [15] = assay: Antifungal activity against sithiofam-sensitive Gaeumannomyces graminis var. tritici isolate HN11 expressing C2 genetic cluster assessed as reduction in fungal colony diameter after 4 days; type: functional, organism-based; settings: isolate HN11, HN11, 96 h
Gaeumannomyces tritici [16] = assay: Antifungal activity against sithiofam-resistant Gaeumannomyces graminis var. tritici isolate HN05 expressing C1 genetic cluster assessed as reduction in fungal colony diameter after 4 days; type: functional, organism-based; settings: isolate HN05, 96 h
Gaeumannomyces tritici [17] = assay: Antifungal activity against sithiofam-resistant Gaeumannomyces graminis var. tritici isolate HN03 expressing C1 genetic cluster assessed as reduction in fungal colony diameter after 4 days; type: functional, organism-based; settings: isolate HN03, 96 h
Gaeumannomyces tritici [18] = assay: Antifungal activity against sithiofam-resistant Gaeumannomyces graminis var. tritici isolate HN02 expressing C1 genetic cluster assessed as reduction in fungal colony diameter after 4 days; type: functional, organism-based; settings: isolate HN02, 96 h
Gaeumannomyces tritici [19] = assay: Antifungal activity against sithiofam-sensitive Gaeumannomyces graminis var. tritici isolate AH09 expressing C2 genetic cluster assessed as reduction in fungal colony diameter after 4 days; type: functional, organism-based; settings: isolate AH09, 96 h
Gaeumannomyces tritici [20] = assay: Antifungal activity against sithiofam-sensitive Gaeumannomyces graminis var. tritici isolate AH15 expressing C2 genetic cluster assessed as reduction in fungal colony diameter after 4 days; type: functional, organism-based; settings: isolate AH15, 96 h
Gaeumannomyces tritici [21] = assay: Antifungal activity against sithiofam-resistant Gaeumannomyces graminis var. tritici isolate AH06 expressing C1 genetic cluster assessed as reduction in fungal colony diameter after 4 days; type: functional, organism-based; settings: isolate AH06, 96 h
Gaeumannomyces tritici [22] = assay: Antifungal activity against sithiofam-sensitive Gaeumannomyces graminis var. tritici isolate AH05 expressing C2 genetic cluster assessed as reduction in fungal colony diameter after 4 days; type: functional, organism-based; settings: isolate AH05, 96 h
Gaeumannomyces tritici [23] = assay: Antifungal activity against sithiofam-sensitive Gaeumannomyces graminis var. tritici isolate AH03 expressing C2 genetic cluster assessed as reduction in fungal colony diameter after 4 days; type: functional, organism-based; settings: isolate AH03, 96 h
Gaeumannomyces tritici [24] = assay: Antifungal activity against sithiofam-sensitive Gaeumannomyces graminis var. tritici isolate SD06 expressing C2 genetic cluster assessed as reduction in fungal colony diameter after 4 days; type: functional, organism-based; settings: isolate SD06, 96 h
Gaeumannomyces tritici [25] = assay: Antifungal activity against sithiofam-sensitive Gaeumannomyces graminis var. tritici isolate SD03 expressing C2 genetic cluster assessed as reduction in fungal colony diameter after 4 days; type: functional, organism-based; settings: isolate SD03, 96 h
Gaeumannomyces tritici [26] = assay: Antifungal activity against sithiofam-resistant Gaeumannomyces graminis var. tritici isolate AH14 expressing C1 genetic cluster assessed as reduction in fungal colony diameter after 4 days; type: functional, organism-based; settings: isolate AH14, 96 h
Gaeumannomyces tritici [27] = assay: Antifungal activity against sithiofam-sensitive Gaeumannomyces graminis var. tritici isolate AH11 expressing C2 genetic cluster assessed as reduction in fungal colony diameter after 4 days; type: functional, organism-based; settings: isolate AH11, 96 h
Gaeumannomyces tritici [28] = assay: Antifungal activity against sithiofam-resistant Gaeumannomyces graminis var. tritici isolate AH10 expressing C1 genetic cluster assessed as reduction in fungal colony diameter after 4 days; type: functional, organism-based; settings: isolate AH10, 96 h
Gaeumannomyces tritici [29] = assay: Antifungal activity against sithiofam-sensitive Gaeumannomyces graminis var. tritici isolate SD01 expressing C2 genetic cluster assessed as reduction in fungal colony diameter after 4 days; type: functional, organism-based; settings: isolate SD01, 96 h
Gaeumannomyces tritici [30] = assay: (§1) Antifungal activity against sithiofam-sensitive Gaeumannomyces graminis var. tritici isolate SD05 expressing C2 genetic cluster assessed as fungal induced root necrosis administered to wheat cultivar Huaimai 30 seeds grown on fungal infested soils at 0.25 g ai/kg measured after 10 days (reference value: 27.71%); type: functional
Gaeumannomyces tritici [31] = assay: as §1, with “SD04” for “SD05”, “27.34%)” for “27.71%)”; type: functional
Gaeumannomyces tritici [32] = assay: as §1, with “sithiofam-resistant” for “sithiofam-sensitive”, “AH14” for “SD05”, “C1” for “C2”, “28.16%)” for “27.71%)”; type: functional
Gaeumannomyces tritici [33] = assay: as §1, with “sithiofam-resistant” for “sithiofam-sensitive”, “AH02” for “SD05”, “C1” for “C2”, “28.16%)” for “27.71%)”; type: functional

Row | Compound | EC50 (Gaeumannomyces tritici [1]) [ng/mL] | EC50 (Gaeumannomyces tritici [2]) [ng/mL] | EC50 (Gaeumannomyces tritici [3]) [ng/mL] | EC50 (Gaeumannomyces tritici [4]) [ng/mL] | EC50 (Gaeumannomyces tritici [5]) [ng/mL] | EC50 (Gaeumannomyces tritici [6]) [ng/mL] | EC50 (Gaeumannomyces tritici [7]) [ng/mL] | EC50 (Gaeumannomyces tritici [8]) [ng/mL] | EC50 (Gaeumannomyces tritici [9]) [ng/mL] | EC50 (Gaeumannomyces tritici [10]) [ng/mL] | EC50 (Gaeumannomyces tritici [11]) [ng/mL] | EC50 (Gaeumannomyces tritici [12]) [ng/mL] | EC50 (Gaeumannomyces tritici [13]) [ng/mL] | EC50 (Gaeumannomyces tritici [14]) [ng/mL] | EC50 (Gaeumannomyces tritici [15]) [ng/mL] | EC50 (Gaeumannomyces tritici [16]) [ng/mL] | EC50 (Gaeumannomyces tritici [17]) [ng/mL] | EC50 (Gaeumannomyces tritici [18]) [ng/mL] | EC50 (Gaeumannomyces tritici [19]) [ng/mL] | EC50 (Gaeumannomyces tritici [20]) [ng/mL] | further results
1 | CC1COC(Cn2cncn2)(c2ccc(Oc3ccc(Cl)cc3)cc2Cl)O1 (stereo unspecified) [DIFENOCONAZOLE] | 162 (≈ 0.4 µM) | 201 (≈ 0.495 µM) | 198 (≈ 0.486 µM) | 121 (≈ 0.299 µM) | 280 (≈ 0.689 µM) | 116 (≈ 0.287 µM) | 164 (≈ 0.403 µM) | 313 (≈ 0.771 µM) | 326 (≈ 0.803 µM) | 108 (≈ 0.265 µM) | 226 (≈ 0.557 µM) | 154 (≈ 0.38 µM) | 111 (≈ 0.274 µM) | 588 (≈ 1.45 µM) | 164 (≈ 0.403 µM) | 261 (≈ 0.643 µM) | 336 (≈ 0.827 µM) | 236 (≈ 0.58 µM) | 142 (≈ 0.349 µM) | 169 (≈ 0.415 µM) | EC50 (Gaeumannomyces tritici [21]): 240 ng/mL (≈ 0.59 µM); EC50 (Gaeumannomyces tritici [22]): 68.3 ng/mL (≈ 0.168 µM); EC50 (Gaeumannomyces tritici [23]): 401 ng/mL (≈ 0.988 µM); EC50 (Gaeumannomyces tritici [24]): 180 ng/mL (≈ 0.443 µM); EC50 (Gaeumannomyces tritici [25]): 530 ng/mL (≈ 1.31 µM); EC50 (Gaeumannomyces tritici [26]): 301 ng/mL (≈ 0.741 µM); EC50 (Gaeumannomyces tritici [27]): 129 ng/mL (≈ 0.317 µM); EC50 (Gaeumannomyces tritici [28]): 128 ng/mL (≈ 0.314 µM); EC50 (Gaeumannomyces tritici [29]): 782 ng/mL (≈ 1.93 µM)
2 | C=CCNC(=O)c1c([Si](C)(C)C)sc(C)c1C [SILTHIOFAM] | 0.2 (≈ 0.000748 µM) | 24700 (≈ 92.2 µM) | 30300 (≈ 113 µM) | 1.6 (≈ 0.00598 µM) | 1.3 (≈ 0.00486 µM) | 48400 (≈ 181 µM) | 46800 (≈ 175 µM) | 0.9 (≈ 0.00336 µM) | 0.1 (≈ 0.000374 µM) | 0.2 (≈ 0.000748 µM) | 121000 (≈ 451 µM) | 1.1 (≈ 0.00411 µM) | 0.3 (≈ 0.00112 µM) | 53000 (≈ 198 µM) | 0.7 (≈ 0.00262 µM) | 23800 (≈ 89.1 µM) | 30000 (≈ 112 µM) | 88100 (≈ 329 µM) | 0.3 (≈ 0.00112 µM) | 0.5 (≈ 0.00187 µM) | Activity (Gaeumannomyces tritici [30]): 3.19%; Activity (Gaeumannomyces tritici [31]): 1.02%; Activity (Gaeumannomyces tritici [32]): 28.42%; Activity (Gaeumannomyces tritici [33]): 28%; EC50 (Gaeumannomyces tritici [21]): 29100 ng/mL (≈ 109 µM); EC50 (Gaeumannomyces tritici [22]): 1.3 ng/mL (≈ 0.00486 µM); EC50 (Gaeumannomyces tritici [23]): 0.3 ng/mL (≈ 0.00112 µM); EC50 (Gaeumannomyces tritici [24]): 1.2 ng/mL (≈ 0.00449 µM); EC50 (Gaeumannomyces tritici [25]): 0.9 ng/mL (≈ 0.00336 µM); EC50 (Gaeumannomyces tritici [26]): 39900 ng/mL (≈ 149 µM); EC50 (Gaeumannomyces tritici [27]): 0.4 ng/mL (≈ 0.0015 µM); EC50 (Gaeumannomyces tritici [28]): 57600 ng/mL (≈ 215 µM); EC50 (Gaeumannomyces tritici [29]): 0.8 ng/mL (≈ 0.00299 µM)
3 | CC(C)(C)C(O)(CCc1ccc(Cl)cc1)Cn1cncn1 (stereo unspecified) [TEBUCONAZOLE] | 51 (≈ 0.166 µM) | 58.4 (≈ 0.19 µM) | 201 (≈ 0.652 µM) | 74.2 (≈ 0.241 µM) | 54.7 (≈ 0.178 µM) | 27.4 (≈ 0.089 µM) | 43.7 (≈ 0.142 µM) | 103 (≈ 0.334 µM) | 47.8 (≈ 0.155 µM) | 76 (≈ 0.247 µM) | 53.6 (≈ 0.174 µM) | 86 (≈ 0.279 µM) | 47.2 (≈ 0.153 µM) | 76 (≈ 0.247 µM) | 56.2 (≈ 0.183 µM) | 49.8 (≈ 0.162 µM) | 72.4 (≈ 0.235 µM) | 36.4 (≈ 0.118 µM) | 95.2 (≈ 0.309 µM) | 26.3 (≈ 0.0854 µM) | EC50 (Gaeumannomyces tritici [21]): 28.3 ng/mL (≈ 0.0919 µM); EC50 (Gaeumannomyces tritici [22]): 90.2 ng/mL (≈ 0.293 µM); EC50 (Gaeumannomyces tritici [23]): 62.2 ng/mL (≈ 0.202 µM); EC50 (Gaeumannomyces tritici [24]): 64.6 ng/mL (≈ 0.21 µM); EC50 (Gaeumannomyces tritici [25]): 98.3 ng/mL (≈ 0.319 µM); EC50 (Gaeumannomyces tritici [26]): 26.5 ng/mL (≈ 0.0861 µM); EC50 (Gaeumannomyces tritici [27]): 39.5 ng/mL (≈ 0.128 µM); EC50 (Gaeumannomyces tritici [28]): 112 ng/mL (≈ 0.363 µM); EC50 (Gaeumannomyces tritici [29]): 176 ng/mL (≈ 0.573 µM)
